Experiments:
[1] = test system: NU14 biofilm; experiment: Biofilm Assay (crystal violet stain on PVC plates); format: cell-based, Escherichia coli; conditions: 48 hrs at room temperature, absorbance at 600 nm; untreated NU14 = 100%
Procedure: The Biofilm Assay was carried out according to the following steps:
Day 1 Set Up Biofilm Growth on PVC Plates
1. Sterilize PVC plates (96-well round bottom polyvinyl chloride [PVC] plates; Falcon #353911) and PVC Lids (Falcon #353913) in tissue culture hood under UV irradiation for at least 30 min.
2. Make dilution (from overnight cultures) or suspension (from either colonies on plates or freezer stocks) of bacterial cultures. Make enough of bacterial cultures for the number of wells needed. Bacterial culture need to be very dilute: at least 1:1,000 fold dilution from overnight cultures or a small quantity from colonies or freezer stocks.
3. Add 100 μl of bacterial cultures into each well. Make sure to have 1 well with LB alone as negative control and 1 well without anything for blank.
4. Cover plates with lids and leave plates undisturbed at room temperature for 48 hrs.
Day 3 Assay Biofilm With Crystal Violet Stain
5. Prepare enough PBS (w/out Mg^2+ Ca^2+) to wash biofilm plates (need at least 3 L PBS for 1-5 plates). Could use mpH2O instead of PBS.
6. Get a clean 4 L plastic beaker. Cover the bench with a large piece of absorbent pad.
7. Fill 3 containers (large enough to dip the 96-well plates in) with PBS.
8. Start washing a biofilm plate by dumping out bacterial cultures into the beaker. (Treat contents in this beaker as biohazard. Need to bleach the content before emptying it into drain.)
9. Fill the biofilm plate in the first PBS container and shake off PBS in the beaker. Rinse the biofilm 1× in the first PBS container. Put the biofilm plate into the second PBS container and rinse 2×.
10. Put the biofilm plate in the third PBS container and let sit.
11. Proceed to wash a second biofilm plate if there are any.
12. While the second biofilm plate is in the second container, rinse the first biofilm plate 1× and remove it from PBS. Decant residual PBS by banging the plate on paper towels on the bench. Leave the plate up-side-down on a clean paper towel and let the plate dry.
13. Put the second biofilm plate into the third PBS container and let sit.
14. Proceed to wash a third biofilm plate if applicable.
15. Repeat steps 8-14 until all plates are washed.
16. Let washed biofilm plates air-dry for at least 15 min.
Crystal Violet Stain and Wash
17. Fill 4 containers (large enough to dip the 96-well plates in) with PBS.
18. With a multi-channel pipet, add 125 μl of 1% Crystal Violet (in mpH2O). Stain biofilm plates sequentially for 10 min. (not more than 15 min). Give at least 2 minute break in-between staining each plates. If more than 4 biofilm plates, might want to consider staining and washing them in batches.
19. Start washing biofilm plates as above.
20. Let the washed plates air-dry for 10 minor so. […]
24. Proceed immediately to the Plate Reader and read the absorbance of the plate at 600 nm. […]

[2] = test system: NU14 adherence to type 5637 bladder cell line; experiment: Infection of bladder cells in vitro (Adherence Assay); format: cell-based, Escherichia coli; conditions: 5637 bladder cells; untreated NU14 = 100%
Procedure: Infection of Bladder Cells in vitro (Adherence Assay)
The infection of bladder cells in vitro was carried out according to the following steps:
Preparation of Tissue Culture Cells (Type 5637 Bladder Cell Line)
1. Place 1 ml of RPMI/10% FBS containing 1:20 dilution of 5637 cells in each well of 24 well plate.
2. Place in incubator for 3 days or until confluent growth.
Preparation of Bacterial Cells (Strains NU14 and UTI89)
1. Inoculate 20 ml of LB containing NU14 with a single colony or a loop from a frozen stock to a 250 ml flask.
2. Static growth at 37° C. for 2 days to induce pili production.
3. Harvest cells at 4,000×g for 10 minutes.
4. Resuspend in 5 ml of PBS ([…])
Infection of Tissue Culture Cells In Vitro
1. Wash each well with PBS MgCl2/CaCl2.
2. Place 1 ml of fresh medium to each well.
3. Add 10 μl of bacterial cells to each well. Triplicate plates.
4. Spin plate at 1800 rpm for 5 minutes.
5. View under 40× to see−2-3 bacterial cells/epithelial cell.
6. Place in lower incubator for 2 hours.
7. Wash two plates 5× with PBS MgCl2/CaCl2. Lyse by addition of 0.1% sarkosyl/0.5% glucose/PBS—MgCl2/CaCl2 one set and dilute for CFU.

Row | Structure (SMILES) | Bioflim Assay % of Wild Type [1] [%] | Adherence Assay % of Wild Type [2] [%]
1 | Cc1c(-c2ccccc2)c2n(c(=O)c1CN(C)C)[C@H](C(=O)[O-])CS2.[Li+] | 73.1 | 97.6
2 | O=C([O-])[C@@H]1CSc2c(C3CC3)c(Cc3cccc4ccccc34)c(CN3CCOCC3)c(=O)n21.[Li+] | 8.3 | 12.2
3 | O=C([O-])[C@@H]1CSc2c(-c3ccccc3)c(Cc3cccc4ccccc34)c(CN3CCOCC3)c(=O)n21.[Li+] | 6.8 | 14.3
4 | CN(C)Cc1c(Cc2cccc3ccccc23)c(-c2ccccc2)c2n(c1=O)[C@H](C(=O)[O-])CS2.[Li+] | 6.9 | 21.8
